Experimental findings from patent publication USRE47351E1 (Gilead Sciences, Inc., priority 1999, dated 2019) are described below.

SMILES strings stand for the structures. Like-named read-outs stand apart in the source and are kept apart here.

Assay [1] concerns the target A2A receptor (Sus scrofa, UniProt K9IW67). In words: A2A receptor affinity in pig striatum membrane prep (tritiated ZM 241385 displacement). The assay is classed as binding. The note with it: read-out: A2a Ki; pig striatal membranes, displacement of tritiated ZM 241385 (2 nM), 23° C. 2 h. Here is the method: Compounds of this invention were assayed to determine their affinity for the A2A receptor in a pig striatum membrane prep. […]. To the pig membranes was added 2 μL of serially diluted DMSO stock solution of the compounds of this invention at concentrations ranging from 10 nM to 100 microM or the control received 2 microL of DMSO alone, then the antagonist ZM 241385 in Tris buffer (50 mM, pH of 7.4) was added to achieve a final concentration of 2 nM. After incubation at 23° C. for 2 h, then the solutions were filtered using a membrane harvester using multiple washing of the membranes (3×). The filter disks were counted in scintillation cocktail to determine the amount of displacement of tritiated ZM displaced by the compounds of this invention. Greater than a 5 point curve was used to generate Ki's and the number of experiments is indicated in the column marked in Table 1 below.

Assay [2] addresses human A2AAdoR (Homo sapiens (Human), UniProt P29274). The settings on record: conclusion of Example 15. How it is done:
Adenosine deaminase was purchased from Boehringer Mannheim Biochemicals Indianapolis, Id., U.S.A). [^3H]ZM241385 (Lot No. 1) was purchased from Tocris Cookson Ltd (Langford, Bristol, UK).
At the end of incubation, bound and free radioligands were separated by filtration through Whatman GF/C glass fiber filters using a Brandel tissue harvester (Gaithersburg, Md.). Triplicate determinations were performed for each concentration of the competing agent.
The affinity ([…]) of various CVT compounds for the A1 and A2A adenosine receptor were determined by their potency to compete for [^3H]CPX (A1) or [^3H]ZM241385 (A2A) binding sites on membranes derived from CHO-hA1AdoR, PC12 or HEK-HA2AAdoR cells. […] The affinity of selected compounds for A2B and A3 receptors were assessed by their potencies to compete for [^3H] […] ABMECA (A3) binding sites on membranes derived from HEK-hA2BAdoR and CHO-hA3AdoR cells, respectively.

In assay [3] the target is human A1AdoR (Homo sapiens (Human), UniProt P30542). Nature of the assay: Competition binding, [3H]DPCPX/[3H]CPX sites on CHO-hA1AdoR cell membranes. The note with it: in presence of Gpp(NH)p 100 μM.
Sequence of human A1AdoR (P30542 whole entry): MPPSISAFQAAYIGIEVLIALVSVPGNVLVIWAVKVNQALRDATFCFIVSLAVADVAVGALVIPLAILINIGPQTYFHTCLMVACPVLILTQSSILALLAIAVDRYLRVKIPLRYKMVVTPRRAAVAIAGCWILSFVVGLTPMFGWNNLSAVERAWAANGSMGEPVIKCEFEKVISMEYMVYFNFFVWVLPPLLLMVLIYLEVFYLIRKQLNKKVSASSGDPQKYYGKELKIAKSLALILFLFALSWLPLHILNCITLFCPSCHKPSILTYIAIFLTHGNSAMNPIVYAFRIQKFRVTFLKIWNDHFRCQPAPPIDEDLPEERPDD
Assay [4] addresses human A2BAdoR (Homo sapiens (Human), UniProt P29275). In words: Competition for [3H]CPX binding sites on HEK-hA2BAdoR membranes. The settings on record: compound at 10 μM. How it is done:
(§1) Cell culture and membrane preparation-PC12 cells were obtained from the American Type Culture Collection and grown in DMEM with 5% fetal bovine serum, 10% horse serum, 0.5 mmol/L L-glutamine, 100 U/mL penicillin, 0.1 mg/mL streptomycin, and 2.5 μg/mL amphotericin. HEK-293 cells stably expressing recombinant human A2BAdoRs (HEK-hA2BAdoR) were grown in DMEM supplemented with 10% fetal bovine serum and 0.5 mg/mL G-418. CHOK1 cells stably expressing the recombinant human A1AdoR (CHO-hA1AdoR) and A3AdoR (CHO-hA3AdoR) were grown as monolayers on 150-mm plastic culture dishes in Ham's F-12 media supplemented with 10% fetal bovine serum in the presence of 0.5 mg/mL G-418. Cells were cultured in an atmosphere of 5% CO2/95% air maintained at 37° C.
(§2) To make membranes, cells were detached from the culture plates into ice-cold 50 mmol/L Tris-HCl buffer (pH7.4). […] The protein concentration of membrane suspensions was determined using the Bradford method (Bio-Rad) with bovine serum as standards. […]
(§3) The affinity ([…]) of various CVT compounds for the A1 and A2A adenosine receptor were determined by their potency to compete for [^3H]CPX (A1) or [^3H]ZM241385 (A2A) binding sites on membranes derived from CHO-hA1AdoR, PC12 or HEK-HA2AAdoR cells. […] The affinity of selected compounds for A2B and A3 receptors were assessed by their potencies to compete for [^3H] […]

The target of assay [5] is human A3AdoR (Homo sapiens (Human), UniProt P0DMS8). In words: Competition for [125I]ABMECA binding sites on CHO-hA3AdoR membranes. The settings on record: compound at 10 μM. How it is done: as §1, §2, §3
Sequence of human A3AdoR (P0DMS8 whole entry, the tested form may be a part): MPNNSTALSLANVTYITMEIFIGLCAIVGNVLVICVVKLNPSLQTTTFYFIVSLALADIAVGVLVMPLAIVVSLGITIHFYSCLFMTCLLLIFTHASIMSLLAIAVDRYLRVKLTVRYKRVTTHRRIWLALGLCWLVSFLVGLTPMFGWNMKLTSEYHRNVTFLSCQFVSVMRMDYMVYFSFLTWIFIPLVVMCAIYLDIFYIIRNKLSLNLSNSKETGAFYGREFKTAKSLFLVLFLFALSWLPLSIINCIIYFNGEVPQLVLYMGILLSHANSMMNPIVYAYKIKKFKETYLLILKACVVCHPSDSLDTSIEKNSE
The target in assay [6] is A2A AdoR (Cavia porcellus (Guinea pig), UniProt P46616). The source says: (§4) Hearts were instrumented for continuous recording of coronary perfusion pressure (A2A response) and atrioventricular (A-V) conduction time or S-H interval (A1 response).
Sequence of A2A AdoR (Cavia porcellus (Guinea pig), UniProt P46616) (P46616 whole entry, the tested form may be a part): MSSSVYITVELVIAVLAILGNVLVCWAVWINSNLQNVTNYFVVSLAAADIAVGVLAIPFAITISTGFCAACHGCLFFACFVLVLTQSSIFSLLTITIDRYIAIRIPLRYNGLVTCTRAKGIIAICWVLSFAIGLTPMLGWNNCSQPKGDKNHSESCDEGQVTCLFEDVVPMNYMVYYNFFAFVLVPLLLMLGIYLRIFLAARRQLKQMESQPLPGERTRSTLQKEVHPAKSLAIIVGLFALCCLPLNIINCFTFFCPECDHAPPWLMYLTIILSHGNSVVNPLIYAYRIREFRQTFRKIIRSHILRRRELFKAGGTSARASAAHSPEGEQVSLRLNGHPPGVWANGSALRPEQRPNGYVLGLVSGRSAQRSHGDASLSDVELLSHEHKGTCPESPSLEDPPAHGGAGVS
For assay [7], the target named is A2A AdoR (Rattus norvegicus (Rat), UniProt P30543).
Sequence of A2A AdoR (Rattus norvegicus (Rat), UniProt P30543) (P30543 whole entry): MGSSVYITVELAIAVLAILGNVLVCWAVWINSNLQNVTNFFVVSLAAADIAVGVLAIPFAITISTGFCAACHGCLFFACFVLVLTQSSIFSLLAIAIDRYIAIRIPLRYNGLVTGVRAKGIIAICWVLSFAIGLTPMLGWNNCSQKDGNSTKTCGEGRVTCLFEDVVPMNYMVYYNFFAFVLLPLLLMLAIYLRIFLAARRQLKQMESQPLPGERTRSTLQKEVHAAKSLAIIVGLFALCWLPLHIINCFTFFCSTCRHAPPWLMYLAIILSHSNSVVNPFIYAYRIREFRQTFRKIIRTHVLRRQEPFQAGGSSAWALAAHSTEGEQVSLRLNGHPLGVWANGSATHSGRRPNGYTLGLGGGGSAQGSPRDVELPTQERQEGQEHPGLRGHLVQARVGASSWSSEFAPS
Description: as §4

Assay [8] addresses A1 AdoR (Rattus norvegicus (Rat), UniProt P25099). In words: A-V nodal conduction time (negative dromotropic effect) in rat isolated perfused hearts. The note with it: Compound 16 0.1-30 μM, CVT510 100-400 nM. How it is done: (§5) In experiments in which A1 adenosine receptor-mediated negative dromotropic effect was measured, atrial and ventricular surface electrograms were recorded during constant atrial pacing.
(§6) A1 adenosine receptor-mediated depression of A-V nodal conduction time (negative dromotropic effect) was measured. Atrial and ventricular surface electrograms in rats and His bundle electrogram in guinea pigs, were recorded during constant atrial pacing.
as §4

Assay [9] concerns the target A1 AdoR (Cavia porcellus (Guinea pig), UniProt P47745). Here is the method:
as §5, §6, §4

Sequence of A1 AdoR (Cavia porcellus (Guinea pig), UniProt P47745) (P47745 whole entry): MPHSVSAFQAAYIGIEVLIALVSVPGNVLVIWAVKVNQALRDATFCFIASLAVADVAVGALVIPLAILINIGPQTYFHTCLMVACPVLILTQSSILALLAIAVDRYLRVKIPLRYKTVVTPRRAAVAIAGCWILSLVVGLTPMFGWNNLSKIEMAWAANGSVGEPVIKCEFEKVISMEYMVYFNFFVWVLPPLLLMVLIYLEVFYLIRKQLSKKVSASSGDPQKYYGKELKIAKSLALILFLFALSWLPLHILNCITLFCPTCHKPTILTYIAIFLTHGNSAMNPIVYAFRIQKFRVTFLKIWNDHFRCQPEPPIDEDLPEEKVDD
Sequence of human A2AAdoR (P29274 whole entry): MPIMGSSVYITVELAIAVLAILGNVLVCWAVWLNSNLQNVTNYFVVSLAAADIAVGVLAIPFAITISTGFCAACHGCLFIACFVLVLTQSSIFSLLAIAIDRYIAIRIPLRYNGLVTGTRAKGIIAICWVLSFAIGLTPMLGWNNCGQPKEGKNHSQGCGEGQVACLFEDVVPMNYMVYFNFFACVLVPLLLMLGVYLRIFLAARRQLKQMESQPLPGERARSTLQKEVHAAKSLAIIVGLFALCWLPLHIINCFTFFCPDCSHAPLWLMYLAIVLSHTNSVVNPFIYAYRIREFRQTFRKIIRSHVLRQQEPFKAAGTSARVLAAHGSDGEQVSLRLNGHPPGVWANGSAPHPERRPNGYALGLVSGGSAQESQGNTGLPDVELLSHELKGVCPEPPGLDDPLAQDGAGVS
Sequence of A1 AdoR (Rattus norvegicus (Rat), UniProt P25099) (P25099 whole entry, the tested form may be a part): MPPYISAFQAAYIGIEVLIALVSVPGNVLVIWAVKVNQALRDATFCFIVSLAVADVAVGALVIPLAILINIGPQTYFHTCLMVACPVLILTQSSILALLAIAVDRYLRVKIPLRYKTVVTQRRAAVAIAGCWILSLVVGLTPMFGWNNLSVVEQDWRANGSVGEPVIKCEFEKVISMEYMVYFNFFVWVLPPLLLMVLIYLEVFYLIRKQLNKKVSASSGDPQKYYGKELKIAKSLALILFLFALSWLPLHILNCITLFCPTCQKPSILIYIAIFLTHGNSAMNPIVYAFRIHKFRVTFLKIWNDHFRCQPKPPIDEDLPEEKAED
Sequence of A2A receptor (K9IW67 1-409): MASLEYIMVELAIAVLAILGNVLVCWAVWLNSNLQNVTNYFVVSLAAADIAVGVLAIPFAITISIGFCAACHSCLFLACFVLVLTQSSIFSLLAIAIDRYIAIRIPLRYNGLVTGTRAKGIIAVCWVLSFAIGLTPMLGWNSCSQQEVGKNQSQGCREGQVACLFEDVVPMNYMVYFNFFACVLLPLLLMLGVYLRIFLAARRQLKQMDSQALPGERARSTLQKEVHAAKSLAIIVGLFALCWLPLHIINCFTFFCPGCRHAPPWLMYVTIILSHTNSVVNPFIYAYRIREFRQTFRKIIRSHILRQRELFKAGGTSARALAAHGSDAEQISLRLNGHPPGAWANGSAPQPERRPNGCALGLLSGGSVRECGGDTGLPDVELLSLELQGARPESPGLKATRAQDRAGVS
Sequence of human A2BAdoR (P29275 whole entry): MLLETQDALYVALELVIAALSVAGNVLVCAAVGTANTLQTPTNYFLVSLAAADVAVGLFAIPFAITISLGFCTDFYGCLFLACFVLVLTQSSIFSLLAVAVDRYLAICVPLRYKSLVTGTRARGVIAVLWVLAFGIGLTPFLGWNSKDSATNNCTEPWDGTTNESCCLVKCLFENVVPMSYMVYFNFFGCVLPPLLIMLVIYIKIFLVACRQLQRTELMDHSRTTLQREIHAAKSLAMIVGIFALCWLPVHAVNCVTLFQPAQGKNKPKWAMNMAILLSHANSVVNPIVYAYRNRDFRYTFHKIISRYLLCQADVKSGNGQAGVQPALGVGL

As for `CNC(=O)c1cnn(-c2nc(N)c3ncn(C4O[C@H](CO)[C@@H](O)[C@H]4O)c3n2)c1` (stereo partly drawn) [Compound 16, (1-{9-[(4S,2R,3R,5R)-3,4-dihydroxy-5-(bydroxymethyl)oxolan-2-yl]-6-aminopurin-2-yl}pyrazol-4-yl)-N-methylcarboxamide], the Ki in assay [1] is 1 to 10 µM; in assay [3] (read-out: Binding Affinity Ki, CHO-hA1AR), over 16.5 µM; in [3] (read-out: Binding Affinity pKi ± SEM, CHO-hA1AR (converted)) it was 25.7 µM. The “A2A affinity in words” value in assay [2] is on record as “low affinity A2A agonist”. The “Decrease of specific binding of [3H]CPX (HEK-hA2BAdoR)” value in [4] was found to be 20%. Also, in assay [5], the “Decrease of specific binding of [125I]IBMECA (CHO-hA3AdoR)” value is recorded as 22%. Besides, the EC50 in [6] stood at 0.0186 ± 0.006 µM; in assay [7], 0.0064 ± 0.0006 µM; in [9], 4 ± 2.3 µM. Further, the “Effect on A-V nodal conduction time” value in assay [8] was “did not prolong”.
